According to article PMC11547513, “Design, Synthesis and Biological Activity Evaluation of β-Carboline Derivatives Containing Nitrogen Heterocycles” (Molecules, 2024):
Like-named read-outs stand apart in the source and are kept apart here. Values belong to the compound of their own block, whether it stands above or below them.

What was measured:
[1] = tested on: PC-3 cells; test: Intracellular ROS assay (DCFH-DA, flow cytometry); type: cell-based, human; conditions: 30 μM, 24 h; negative control MFI 19.8
Procedure: (§1) Apoptosis is an important target for antitumor therapy. To explore the antitumor mechanism of compound 8q, cell apoptosis was detected using flow cytometry. […] Moreover, reactive oxygen species (ROS) play a significant role in cell growth, differentiation and apoptosis. Excessive ROS can cause oxidative damage and lead to cell apoptosis. […]
(§2) a wound healing assay was performed using the method we previously reported1. In short, PC-3 cells were seeded in a six-well plate at a density of 10 × 105 and incubated at a constant temperature of 37 ℃ and 5% CO2 for 24 h. Then the pipette tip was used to create a uniform wound on the surface of cells. Subsequently, after cleaning twice with PBS, the scratch healing of the 8q treatment group and the positive drug treatment […]
(§3) was used to measure and quantify cell migration. […]
PC-3 cells were seeded in a six-well plate at a density of 3 × 105, and cultured at 37 ℃ and 5% CO2 for 24 h before adding 10 μM. […] After completion, the cells were immediately detected on the Flow Cytometry (Solarbio, Beijing, China). […]
at 37 ° C for 20 min. Subsequently, the staining solution was wash off with basic culture medium and detected the fluorescence intensity using the flow cytometer. The data was analyzed and obtained through Flow Jo and Prism 7.04 software. […]
(§4) The distribution of cycles was analyzed by Flow Jo and Prism 7.04 software. […]

[2] = tested on: T47D (human breast cancer cell); test: MTT assay, in vitro cytotoxicity on T47D; conditions: for IC50: read-out: IC50 (Mean ± S.D.), T47D
Excerpt: (§5) Cells were purchased from the Cell Bank of the Chinese Academy of Sciences (Kunming, China).

[3] = tested on: PC-3 (human prostate cancer cell); test: MTT assay, in vitro cytotoxicity on PC-3
Excerpt: as §5

[4] = tested on: PC-3 cells; test: Cell cycle assay (PI, flow cytometry); type: cell-based, human; conditions: 30 μM, 24 h
Procedure: To analyze the effect of compound 8q on cell cycle, the cycle of PC-3 cells was detected after being treated with compound 8q for 24 h (Figure 5). […] In addition, Cyclin D1, a cell cycle-related protein, is a key regulator of cycle progression, mainly regulating G1/S phase transition. […] In summary, compound 8q can arrest cells in the G0/G1 phase. […]
2.5. Cell cycle arrest of compound 8q on PC-3
To determine the effect of compound 8q on the cell cycle distribution of PC-3 cell, we used our previous method with slight modifications2. Briefly, cells were incubated in a six-well plate with a density of 3 × 105 at 37 ℃ and 5% CO2 for 24 h, followed by the addition of different concentrations of compound 8q for further incubation for 24 h.
Next, the cells were collected and washed twice with PBS. 75% anhydrous ethanol was used to immobilize the cells under overnight conditions at 4 ℃. Subsequently, PBS washed cells, and RNase from the cell cycle assay kit (Solarbio, Beijing, China) was added and incubated in a constant temperature (37 ℃) water bath for 30 min. Then PI was added under dark conditions and incubated at 4 ℃ for another half hour to detect.
as §4

[5] = tested on: Hek-293T (human embryonic kidney cells); test: MTT assay, in vitro cytotoxicity on normal Hek-293T; conditions: read-out: Inhibitory Activity/% at 10 μM, Hek-293T
Excerpt: as §5

[6] = tested on: PC-3 cells; test: Wound healing assay; type: cell-based, human; conditions: 30 μM, 24 h; control group 46.41%
Procedure: Given that cell migration plays a pivotal role in tumor cell invasion, to further validate the impact of compound 8q on PC-3 cell motility, a wound healing assay was conducted. […] These findings underscore the potent inhibitory effect of compound 8q on the motility of PC-3 cells. […]
as §2, §3

[7] = tested on: K562 (human chronic myeloid leukemia cell); test: MTT assay, in vitro cytotoxicity on K562; conditions: Homo sapiens; for inhibition at 10 µM: K562, read-out: Inhibitory Activity/% at 10 μM, K562
Excerpt: as §5

[8] = tested on: A549 (human lung cancer cell); test: MTT assay, in vitro cytotoxicity on A549; conditions: for IC50: A549, read-out: IC50 (Mean ± S.D.), A549
Excerpt: as §5

[9] = tested on: PC-3 cells; test: Annexin V-FITC/PI apoptosis, flow cytometry; type: cell-based, human; conditions: 30 μM
Excerpt: as §1
2.3.The effect of compound 8q on cell apoptosis
We used Annexin V-FITC/ PI double staining to evaluate cellular apoptosis via flow cytometry to figure out if apoptosis participates in the inhibition of cell growth.
PC-3 cells were seeded in a six-well plate at a density of 3 × 105, and cultured at 37 ℃ and 5% CO2 for 24 h before adding 10 μM. 20 μM and 30 μM compound 8q and 30 μM Harmine to each well. After 48 h, the cells were collected and stained and incubated flowing the manufacturer ’s protocol of the Annexin V-FITC/PI Apoptosis Detection Kit (Solarbio, Beijing, China). After completion, the cells were immediately detected on the Flow Cytometry (Solarbio, Beijing, China). The experimental results were processed using Flow Jo and Prism 7.04 software. […]

[10] = Observation of water solubility / precipitation during the cell experiments; conditions: during antitumor activity measurement

SMILES: COc1ccc2c(c1)[nH]c1c(C)nccc12 [Harmine, reference compound]
- ROS mean fluorescence intensity (MFI) value [1]: 37.9
- IC50 [2]: 38.5 ± 1.17 µM
- inhibition at 10 µM ([2]; read-out: Inhibitory Activity/% at 10 μM, T47D, Table 1 (7 series), 10 μM, average of three replicates, "/" means no anticancer activity): 51.3 ± 4.58%
- inhibition at 10 µM ([2]; read-out: Inhibitory Activity/% at 10 μM, T47D, Table 2 (8 series), 10 μM, average of three replicates, "/" means no anticancer activity): 48.8 ± 2.37%
- IC50 ([3]; Homo sapiens, read-out: IC50 (Mean ± S.D.), PC-3): 24.4 ± 4.45 µM
- inhibition at 10 µM ([3]; Homo sapiens, read-out: Inhibitory Activity/% at 10 μM, PC-3): 14.5 ± 1.42%
- Cell cycle distribution, S phase ([4]; negative control 20.8%): 26.4%
- Cell cycle distribution, G2/M phase ([4]; negative control 23.6%): 49.0%
- Cell cycle distribution, G0/G1 phase ([4]; negative control 50.6%): 17.3%
- inhibition at 10 µM [5]: 29.1 ± 3.19%
- Migration rate of PC-3 cells [6]: 21.51%
- IC50 ([7]; K562, read-out: IC50 (Mean ± S.D.), K562): 15.7 ± 2.27 µM
- inhibition at 10 µM [7]: 36 ± 2.77%
- IC50 [8]: 25.9 ± 4.78 µM
- inhibition at 10 µM ([8]; A549, read-out: Inhibitory Activity/% at 10 μM, A549, Table 1 (7 series), 10 μM, average of three replicates, "/" means no anticancer activity): 31 ± 2.81%
- inhibition at 10 µM ([8]; A549, read-out: Inhibitory Activity/% at 10 μM, A549, Table 2 (8 series), 10 μM, average of three replicates, "/" means no anticancer activity): 31.2 ± 2.67%
- Total apoptosis rate in PC-3 cells ([9]; 48 h): 65.96%
- Annexin V-FITC/PI flow cytometry quadrant Q1 ([9]; Figure 4A): 0.21
- Annexin V-FITC/PI flow cytometry quadrant Q2 ([9]; Figure 4A): 35.4
- Annexin V-FITC/PI flow cytometry quadrant Q3 ([9]; Figure 4A): 34.2
- Annexin V-FITC/PI flow cytometry quadrant Q4 ([9]; Figure 4A): 30.2

- Precipitation observed under microscopy [10]: precipitate crystals
SMILES: COc1cc(-c2nc(-c3nnc(SCC(=O)N4CCN(c5ncccn5)CC4)o3)cc3c2[nH]c2ccccc23)cc(OC)c1OC [Compound 8g]
- IC50 [2]: > 40 µM
- inhibition at 10 µM ([2]; read-out: Inhibitory Activity/% at 10 μM, T47D): 40.6 ± 4.48%
- IC50 ([3]; Homo sapiens, read-out: IC50 (Mean ± S.D.), PC-3, average of three replicates): < 10 µM
- inhibition at 10 µM ([3]; Homo sapiens, read-out: Inhibitory Activity/% at 10 μM, PC-3, Table 2 (8 series), 10 μM, average of three replicates, "/" means no anticancer activity): 45.4 ± 0.82%
- IC50 ([3]; read-out: IC50 (Mean ± S.D.), PC-3, average of three replicates): 9.56 ± 1.43 µM
- inhibition at 10 µM [5]: 29 ± 4.56%
- IC50 ([7]; K562, read-out: IC50 (Mean ± S.D.), K562, average of three replicates): > 40 µM
- inhibition at 10 µM [7]: 6.38 ± 0.52%
- IC50 [8]: > 40 µM
- inhibition at 10 µM ([8]; A549, read-out: Inhibitory Activity/% at 10 μM, A549): 35.8 ± 1.17%
